# From article PMC9404989, “Design and Evaluation of Short Bovine Lactoferrin-Derived Antimicrobial Peptides against Multidrug-Resistant Enterococcus faecium” (Antibiotics, 2022)
# Like-named read-outs stand apart in the source and are kept apart here. No end group written: not given here.
# Columns and labels:
# E. faecium strain C68 [1] = assay: microbe, parasite or virus in culture; assay type: cell-based, Enterococcus faecium
# Method: (§1) To determine the MICs of peptides, we used the broth microdilution method described by the Clinical and Laboratory Standards Institute. We made serial dilutions of 10× concentration (10 µL) for each peptide in duplicates in 96-well plates (Cat No. 3595, Corning, New York, NY, USA). We added 90 µL of logarithmic-phase bacteria at 5 × 10^5 CFU/mL (in BHI media) to the peptides and then incubated the plates at 37 °C for 18 h. We measured the OD600 absorbance readings using the Spectra Max i3x spectrophotometer (Molecular Devices, San Jose, CA, USA) and determined the MIC as the peptide concentration that inhibits the growth of bacteria.
# E. faecium D24 = assay: microbe, parasite or virus in culture; assay type: cell-based, Enterococcus faecium
# Method: as §1
# E. faecium E007 = assay: microbe, parasite or virus in culture; assay type: cell-based, Enterococcus faecium; conditions: for MIC: Enterococcus faecium; for MIC E007: E007, 18 h
# Method: as §1
# E. faecium D25 = assay: microbe, parasite or virus in culture; assay type: cell-based, Enterococcus faecium
# Method: as §1
# E. faecium D29 = assay: microbe, parasite or virus in culture; assay type: cell-based, Enterococcus faecium
# Method: as §1
# E. faecium D14 = assay: microbe, parasite or virus in culture; assay type: cell-based, Enterococcus faecium
# Method: as §1
# E. faecium WC176 = assay: organism not typed; assay type: cell-based, Enterococcus faecium; conditions: for MIC: read-out: MIC WC176; for MIC WC176: WC176, 18 h
# Method: as §1
# E. faecium strain C68 [2] = assay: microbe, parasite or virus in culture; assay type: cell-based, Enterococcus faecium; conditions: for MIC: Enterococcus faecium, C68; for MIC + CaCl2 (2.5 mM) / MIC + MgSO4 (1 mM) / MIC + NaCl (150 mM) / MIC + ZnSO4 (8 µM): strain C68, 18 h
# Method: as §1
# To investigate the activity of peptides in various salt concentrations, we included physiologically relevant salts in the BHI medium.
# [3] = system: E. faecium strain C68 on porcine skin; assay: Ex vivo porcine skin infection assay; design: species or system Enterococcus faecium; conditions: exponential cells
# Source text: We evaluated the efficacy of designed lactoferrin AMPs in an ex vivo porcine skin model previously described with minor modifications. We first cleaned the shaved porcine skin (Fisher Scientific, Hampton, NH, USA) with 70% ethanol and then water, and glued polyethylene tubing (5 mm) (Nalgene VWR 228-0170, Radnor, PA, USA) to the skin samples with cyanoacrylate glue (Fisher Scientific, Hampton, NH, USA). Using disposable razors, we cut each piece of skin glued to the tube and inserted it into a 12-well tissue culture plate (Falcon, Cat No. 353182). We infected each skin with 1 × 10^6 CFU of exponential or persister E. faecium strain C68 cells in a total volume of 10 µL. Following an incubation of 1 h at 37 °C, we treated the skin with 50 µL with 5L and 6L at concentrations of 10× or 1× MIC. After an additional 4 h of incubation at 37 °C, we washed each tubing well with 250 µL of PBS (pH 7.4) containing 0.05% Triton X-100 to remove bacteria. After serially diluting the bacterial sample, we counted their CFUs.
# S. aureus MW2 = assay: microbe, parasite or virus in culture; assay type: cell-based, Staphylococcus aureus; conditions: for MIC S. aureus MW2: MW2, 18 h
# Method: as §1
# E. faecalis OG1RF = assay: MIC assay, E. faecalis OG1RF; assay type: cell-based; conditions: rifampin and fusidic acid resistant
# Method: as §1
# E. faecalis MMH594 = assay: microbe, parasite or virus in culture; assay type: cell-based; conditions: for MIC E. faecalis MMH594: MMH594, 18 h
# Method: as §1
# E. faecalis V583 = assay: microbe, parasite or virus in culture; assay type: cell-based; conditions: for MIC E. faecalis V583: V583, 18 h
# Method: as §1
# [4] = HPLC retention time on C18 reverse-phase column; assay type: physicochemical
# Source text: Table 1 Physical parameters and the minimal inhibitory concentration (µg/mL) of designed peptides against E. faecium. | column: rT ^f (min)
# [5] = system: E. faecium strain C68 established biofilms; assay type: cell-based, Enterococcus faecium
# Method: We prepared exponential cultures of E. faecium strain C68 (adjusted to 1 × 10^8 CFU/mL) in BHI media (supplemented with 0.2% glucose) from overnight grown cultures. We added 100 µL of the bacterial culture to wells of flat-bottomed 96-well polystyrene microtiter plates (Cat No. 3595, Corning, NY, USA). We then incubated the plates at 37 °C for 24 h in static conditions to allow biofilm formation. After incubation, we carefully pipetted out the media and washed the wells with PBS (Gibco, Waltham, MA, USA) to remove loosely attached planktonic cells. We treated the established biofilms in each well with 10 µL of serially diluted 10× peptide solution, followed by the addition of 90 μL of BHI media (supplemented with 0.2% glucose). The plates were incubated for another 24 h at 37 °C before processing for biomass and live-cell contents. We quantitated the concentration of peptide that disrupts 50% of established biofilms (MBEC50).
# [6] = system: E. faecium E007 established biofilms; assay type: cell-based, Enterococcus faecium; conditions: for concentration killing 50% of live bacteria cells in established biofilms: strain E007, 24 h established biofilms, XTT; for established biomass disrupted: strain E007, at 32 µg/mL
# [7] = system: drug-resistant E. faecium clinical isolates; assay type: cell-based, Enterococcus faecium; conditions: strains D14, D24, D25, D29, C68 and WC176
# Method: as §1
# [8] = system: E. faecium C68 biofilm formation; assay: Prevention of E. faecium biofilm formation (XTT, crystal violet); assay type: cell-based, Enterococcus faecium; conditions: XTT, 24 h, BHI + 0.2% glucose
# Method: We evaluated the ability of the lactoferrin-derived peptides to inhibit biofilm formation following an established protocol with modifications. In short, we prepared exponential cultures of E. faecium C68 (adjusted to OD600 = 0.01) in BHI media (supplemented with 0.2% glucose) from overnight grown cultures. We added 90 µL of the bacterial culture to 10 µL of serially diluted 10× peptide solution in flat-bottomed 96-well polystyrene microtiter plates (Cat No. 3595, Corning, NY, USA) and then incubated the plates at 37 °C for 24 h. We considered media containing bacteria and water as the positive control, while media with water served as the negative control. After incubation, we carefully pipetted out the media and washed the wells with PBS (Gibco, Waltham, MA, USA) to remove loosely attached planktonic cells. We quantified the biomass by staining the biofilms with crystal violet following an established protocol and quantitated the concentration of peptide that inhibits 50% of biofilm formation (MBIC50). Furthermore, we measured the live cell count of the biofilms using XTT [2,3-bis(2-methyloxy-4-nitro-5-sulfophenyl)-2H-tertazolium-5-carboxanilide] dye (ATCC, Manassas, VA, USA). We calculated the percentage of biofilm growth by assuming that there was 100% biofilm growth in wells with bacteria without peptide treatment.
Compound,MIC S. aureus MW2 (S. aureus MW2) [µg/mL],rT (HPLC retention time) [4] [min],"MIC EF C68 (E. faecium strain C68 [1]; strain C68, 18 h) [µg/mL]","MIC Media Only (E. faecium strain C68 [1]; strain C68, 18 h) [µg/mL]",MIC E. faecalis OG1RF (E. faecalis OG1RF) [µg/mL],MIC + CaCl2 (2.5 mM) (E. faecium strain C68 [2]) [µg/mL],MIC + MgSO4 (1 mM) (E. faecium strain C68 [2]) [µg/mL],MIC + NaCl (150 mM) (E. faecium strain C68 [2]) [µg/mL],MIC + ZnSO4 (8 µM) (E. faecium strain C68 [2]) [µg/mL],MIC E. faecalis MMH594 (E. faecalis MMH594) [µg/mL],MIC E. faecalis V583 (E. faecalis V583) [µg/mL],further results
"CC1(C)S[C@@H]2[C@H](NC(=O)[C@H](N)c3ccccc3)C(=O)N2[C@H]1C(=O)O [Ampicillin, reference compound]",–,–,–,–,–,–,–,–,–,–,–,"MIC (E. faecium strain C68 [1]; Enterococcus faecium, C68, 18 h; read-out: MIC EF C68): > 32 µg/mL; MIC (E. faecium strain C68 [1]; Enterococcus faecium, C68; BHI media only, 37 °C, 18 h; read-out: MIC Media Only): > 32 µg/mL; MIC (E. faecium D24; Enterococcus faecium, D24; read-out: MIC D24): > 32 µg/mL; MIC (E. faecium E007; E007, tetracycline-resistant strain, read-out: MIC E007): > 32 µg/mL; MIC (E. faecium D25; Enterococcus faecium, D25; read-out: MIC D25): > 32 µg/mL; MIC (E. faecium D29; Enterococcus faecium, D29; read-out: MIC D29): > 32 µg/mL; MIC (E. faecium D14; Enterococcus faecium, D14; read-out: MIC D14): ≥ 32 µg/mL; MIC (E. faecium WC176): > 32 µg/mL; MIC (E. faecium strain C68 [2]; BHI + 8 µM ZnSO4, read-out: MIC + ZnSO4 (8 µM)): > 32 µg/mL; MIC (E. faecium strain C68 [2]; BHI + 1 mM MgSO4, read-out: MIC + MgSO4 (1 mM)): > 32 µg/mL; MIC (E. faecium strain C68 [2]; BHI + 2.5 mM CaCl2, read-out: MIC + CaCl2 (2.5 mM)): > 32 µg/mL; MIC (E. faecium strain C68 [2]; BHI + 150 mM NaCl, read-out: MIC + NaCl (150 mM)): > 32 µg/mL"
"CNC(C)C1CCC(N)C(OC2C(N)CC(N)C(OC3OCC(C)(O)C(NC)C3O)C2O)O1 (stereo not shown) [Gentamicin, reference compound]",–,–,–,–,–,–,–,–,–,–,–,"bacterial burden, control antibiotic [3]: ineffective in reducing the bacterial burden"
"CN[C@H](CC(C)C)C(=O)N[C@H]1C(=O)N[C@@H](CC(N)=O)C(=O)N[C@H]2C(=O)N[C@H]3C(=O)N[C@H](C(=O)N[C@H](C(=O)O)c4cc(O)cc(O)c4-c4cc3ccc4O)[C@H](O)c3ccc(c(Cl)c3)Oc3cc2cc(c3O[C@@H]2O[C@H](CO)[C@@H](O)[C@H](O)[C@H]2O[C@H]2C[C@](C)(N)[C@H](O)[C@H](C)O2)Oc2ccc(cc2Cl)[C@H]1O [Vancomycin, reference compound]",–,–,–,–,–,–,–,–,–,–,–,"MIC (S. aureus MW2; Staphylococcus aureus, MRSA, read-out: MIC S. aureus MW2): 1 µg/mL; MIC (E. faecium strain C68 [1]; Enterococcus faecium, C68, 18 h, read-out: MIC EF C68): > 32 µg/mL; MIC (E. faecium D24; Enterococcus faecium, D24, read-out: MIC D24): 1 µg/mL; MIC (E. faecium E007; E007, read-out: MIC E007): 1 µg/mL; MIC (E. faecium D25; Enterococcus faecium, D25, read-out: MIC D25): 1 µg/mL; MIC (E. faecium D29; Enterococcus faecium, D29, read-out: MIC D29): 1 µg/mL; MIC (E. faecium D14; Enterococcus faecium, D14, read-out: MIC D14): 2 µg/mL; MIC (E. faecium WC176): 16 µg/mL; MIC (E. faecalis OG1RF; Enterococcus faecalis, OG1RF): > 32 µg/mL; MIC (E. faecalis MMH594; Enterococcus faecalis, MMH594, read-out: MIC E. faecalis MMH594): > 32 µg/mL; MIC (E. faecalis V583; Enterococcus faecalis, V583, read-out: MIC E. faecalis V583): > 32 µg/mL"
LRWLWRRRWLWR-NH2 [Peptide 3L],> 32,16.145,16,16,> 32,>32,8,16,4,> 32,> 32,–
RLWLWRRRWLWR-NH2 [Peptide 4L],> 32,18.377,4,4,> 32,>32,8,8,4,> 32,> 32,–
RRWLWRL-NH2 [Peptide 2L],> 32,13.321,>32,>32,> 32,–,–,–,–,> 32,> 32,–
RRWLWRRLWLWR-NH2 [Peptide 7L],> 32,16.290,4,4,> 32,8,4,4,2,> 32,> 32,"MIC D24 (E. faecium D24; D24, 18 h): 4 µg/mL; MIC E007 (E. faecium E007): 4 µg/mL; MIC D25 (E. faecium D25; D25, 18 h): 4 µg/mL; MIC D29 (E. faecium D29; D29, 18 h): 8 µg/mL; MIC D14 (E. faecium D14; D14, 18 h): 8 µg/mL; MIC WC176 (E. faecium WC176): 16 µg/mL; MBEC50 (established biomass) ([5]; 24 h established biofilms, 24 h treatment, crystal violet): failed to achieve an MBEC50; concentration killing 50% of live bacteria cells in established biofilms [6]: > 32 µg/mL; established biomass disrupted [6]: 25–30%"
RRWLWRRRWLWL-NH2 [Peptide 8L],> 32,21.235,4,4,> 32,16,4,4,2,> 32,> 32,"MIC D24 (E. faecium D24; D24, 18 h): 8 µg/mL; MIC E007 (E. faecium E007): 4 µg/mL; MIC D25 (E. faecium D25; D25, 18 h): 8 µg/mL; MIC D29 (E. faecium D29; D29, 18 h): 32 µg/mL; MIC D14 (E. faecium D14; D14, 18 h): 16 µg/mL; MIC WC176 (E. faecium WC176): 16 µg/mL; MBEC50 (established biomass) ([5]; strain C68 established biofilms, 24 h): 30 µg/mL; MIC range against clinical isolates of E. faecium [7]: 8 to 32 µg/mL; concentration killing 50% of live bacteria cells in established biofilms [6]: > 32 µg/mL; established biomass disrupted [6]: 25–30%; concentration killing 50% of live bacterial cells during biofilm formation stage [8]: 2.8 µg/mL"
RRWQWRLLLL-NH2 [Peptide 1L],> 32,18.083,16,16,> 32,32,8,4,4,> 32,> 32,–
